Results: patent publication US20150273020A1, “Hormone Normalization Therapy and Uses Therefor” (priority 2007, published 2015)

Experiments:
[1] = tested on: patient with diminished ovarian reserve; assay: Case of a low-responder patient: FSH needed to ovulate, with and without estradiol patch and low dose hCG; type: in vivo, human
Experimental: To ovulate a single follicle, they required a follicle stimulating hormone level of 18 IU/L, with a typical threshold value of FSH required for a regularly cycling young and healthy woman in the range of 5 IU/L or less. This patient was also characterized by their physician as a low responder to FSH, which refers to a patient who requires high follicle stimulating hormone doses to ovulate even a single follicle. […] In the first two menstrual cycles, the patient was treated using the method as described supra, with a high dose follicle stimulating hormone (FSH) at a total dosage of FSH at about 5,000 IU across the cycle with very high threshold dosage and threshold peak follicle stimulating hormone levels like that of an AMA person with high FSH, in the first cycle and second cycle to induce follicle growth to the ovulatory stage. In the third consecutive treatment cycle, the above-described regimen was supplemented with an estradiol patch delivering 17-beta estradiol for several days until the commencement of stimulation with FSH medication. The patch was then continued daily during the period of stimulated until the evening before expected hCG injection, when it was removed. This was designed to coincide to approximate the timing of the estradiol surge. […]

[2] = tested on: follicular growth to ovulation; conditions: Schoemaker study; cited from earlier work
[3] = woman given daily FSH injections at a given dosage; cited from earlier work

Substance: follicle stimulating hormone
- follicle stimulating hormone level required to ovulate a single follicle ([1]; COHS cycle, severe GnRHa suppression): 18 IU/L
- total dosage of FSH across the cycle to induce follicle growth to the ovulatory stage ([1]; first and second cycles, without estradiol and hCG supplementation): about 5,000 IU
- threshold level of serum FSH for follicular growth to ovulation [2]: 7.8 IU
- time for steady-state levels of FSH to be established [3]: 4 days
